Experimental data: ChEMBL document CHEMBL1926617, “Antifungal activities of novel non-azole molecules against S. cerevisiae and C. albicans” (Eur J Med Chem, 2012)
Converted amounts (≈) assume the structure as drawn. The source made the active and inactive calls. No cut-off for these calls is given here.

Tests used:
Saccharomyces cerevisiae [1] = test: Antifungal activity against Saccharomyces cerevisiae ATCC 24657 assessed as growth inhibition after 24 to 48 hrs by agar plate bioassay; format: functional
Candida albicans [2] = test: Antifungal activity against Candida albicans ATCC 32032 assessed as growth inhibition after 24 to 48 hrs by agar plate bioassay; format: functional
Saccharomyces cerevisiae [3] = test: Antifungal activity against Saccharomyces cerevisiae ATCC 24657 assessed as growth inhibition after 24 to 48 hrs by spectrophotometric bioassay; format: functional
Saccharomyces cerevisiae [4] = test: Antifungal activity against Saccharomyces cerevisiae ATCC 24657 assessed as growth inhibition at 90.7 uM after 24 hrs by spectrophotometric bioassay; format: functional, organism-based
Saccharomyces cerevisiae [5] = test: Antifungal activity against Saccharomyces cerevisiae ATCC 24657 assessed as growth at 90.7 uM after 48 hrs by agar plate bioassay relative to control; format: functional
Saccharomyces cerevisiae [6] = test: Antifungal activity against Saccharomyces cerevisiae ATCC 24657 assessed as growth inhibition at 90.7 uM after 24 hrs by agar plate bioassay; format: functional, organism-based
Saccharomyces cerevisiae [7] = test: Fungistatic activity against Saccharomyces cerevisiae ATCC 24657 assessed as cell proliferation at 90.7 uM after 24 hrs by agar plate bioassay relative to control; format: functional; conditions: ATCC 24657, 24 h
Saccharomyces cerevisiae [8] = test: Antifungal activity against Saccharomyces cerevisiae ATCC 24657 assessed as growth at 90.7 uM after 48 hrs by spectrophotometric bioassay relative to control; format: functional
Candida albicans [9] = test: Antifungal activity against Candida albicans assessed as morphogenetic transformation after 3 hrs by phase-contrast microscopy; format: functional
Saccharomyces cerevisiae [10] = test: Fungistatic activity against Saccharomyces cerevisiae ATCC 24657 assessed as cell growth at 90.7 uM after 48 hrs by spectrophotometric bioassay; format: functional, organism-based
Saccharomyces cerevisiae [11] = test: Fungistatic activity against Saccharomyces cerevisiae ATCC 24657 assessed as cell proliferation at 90.7 uM after 24 hrs by spectrophotometric bioassay; format: functional, organism-based
Saccharomyces cerevisiae [12] = test: Fungistatic activity against Saccharomyces cerevisiae ATCC 24657 assessed as cell proliferation compound after 24 to 48 hrs by agar plate bioassay; format: functional, organism-based
Saccharomyces cerevisiae [13] = test: Fungistatic activity against Saccharomyces cerevisiae ATCC 24657 assessed as cell proliferation compound after 24 to 48 hrs by spectrophotometric bioassay; format: functional, organism-based

Structure (SMILES)	MIC (Saccharomyces cerevisiae [1])	other results
C=CCOc1ccc(/C=C2\CCc3cc(OC)ccc3C2=O)cc1	> 200 µM	
O=C(c1ccncc1)c1ccc(Cl)cc1	> 200 µM	MIC50 (Saccharomyces cerevisiae [1]): 100 µM (≈ 21.8 µg/mL)
CC1CCc2c(sc(NC(=O)Sc3nnc(-c4ccc(Cl)cc4)n3-c3ccccc3)c2C#N)C1 (configuration not stated)		MIC (Candida albicans [2]): > 100 µM
Cc1nc(C)c(C(=O)N2CCC(c3nc(C(=O)N(CCC#N)Cc4ccco4)cs3)CC2)s1	> 200 µM	
COc1nc2c(c(-c3ccc[nH]3)c1C#N)Cc1ccccc1-2	> 200 µM	
CCCN(CCC)S(=O)(=O)c1ccc(C(=O)N/N=C/c2ccc(N(C)CCC#N)cc2)cc1	> 200 µM	
O=C(/C=C\c1ccco1)NCC(=O)N1CCC(c2nccn2CCc2ccsc2)CC1	> 200 µM	
COC(=O)c1cscc1NC(=O)CC(CC(=O)O)c1ccccc1 (configuration not stated)	> 200 µM	
Cc1ccc(C(=O)N(C)Cc2ccco2)c(C2CCN(C(=O)/C=C/c3ccc4c(c3)OCO4)CC2)n1	> 200 µM	
Cc1cccc(C(=O)Nc2sc3c(c2C(N)=O)CCCC3)c1	> 200 µM	MIC50 (Saccharomyces cerevisiae [3]): 50 µM (≈ 15.7 µg/mL)
CN(CCC#N)c1ccc(C=C(C#N)C#N)cc1	> 200 µM	
COc1ccc(CC2c3cc(OC)c(OC)cc3CCN2C=C(C#N)C#N)cc1OC (configuration not stated)	> 200 µM	
N#C/C(=C\c1ccc(C(F)(F)F)cc1)c1ccc(OCc2c(F)cccc2Cl)cc1	> 200 µM	
CCC(C)n1ncn(-c2ccc(N3CCN(c4ccc(OCC5COC(Cn6cncn6)(c6ccc(Cl)cc6Cl)O5)cc4)CC3)cc2)c1=O (configuration not stated) [ITRACONAZOLE]		growth inhibition (GI) (Saccharomyces cerevisiae [4]): inactive; fold change (FC) (Saccharomyces cerevisiae [5]): 1.5; growth inhibition (GI) (Saccharomyces cerevisiae [6]): inactive; inhibition at 90.7 µM (Saccharomyces cerevisiae [7]): 95%; fold change (FC) (Saccharomyces cerevisiae [8]): 1.5; MIC (Candida albicans [9]): > 90.7 µM; Activity (Saccharomyces cerevisiae [10]): inactive; Activity (Saccharomyces cerevisiae [11]): Active
CCOc1ccc(/N=C/c2ccc(N(C)CCC#N)cc2)cc1	> 200 µM	
N#CC(c1ccc2c(c1)OCO2)N(Cc1ccccc1)C(=O)c1sc2ccccc2c1Cl (configuration not stated)	> 200 µM	
Cc1nn(C)c(=O)c2noc(/C=C/c3ccsc3)c12	120 µM (≈ 32.8 µg/mL)	MIC50 (Saccharomyces cerevisiae [1]): 35 µM (≈ 9.57 µg/mL); Activity (Saccharomyces cerevisiae [12]): inactive; Activity (Saccharomyces cerevisiae [13]): inactive
CN(CCC#N)c1ccc(/C=N/NC(=O)N/N=C/c2ccc(N(C)CCC#N)cc2)cc1	> 200 µM	
Cc1n[nH]c(=O)c(N)c1-c1cc(-c2ccsc2)[nH]n1	> 200 µM	
N#CCN1CCN(c2nc3ccc(Cl)cc3s2)CC1	> 200 µM	MIC50 (Saccharomyces cerevisiae [1]): 27 µM (≈ 7.91 µg/mL)
CSc1sc(C(=O)N2CCC3(CCN(C(=O)CNC(=O)c4ccco4)CC3)C2)c2c1C(=O)CCC2	> 200 µM	
CC[C@@H]1C(=O)OC[C@@H]1Cc1cncn1C [PILOCARPINE]	> 200 µM	
O=[N+]([O-])c1ccc(Cc2ccncc2)cc1	> 200 µM	MIC50 (Saccharomyces cerevisiae [1]): 120 µM (≈ 25.7 µg/mL)
CCOC(=O)/C(C#N)=C/c1ccc(N(C)CCC#N)cc1	> 200 µM	
N#CC(C#N)=CNc1ccc2oc3ncccc3c(=O)c2c1	> 200 µM	
CCC(C)(C)c1ccc(CC(C)CN2C[C@@H](C)O[C@@H](C)C2)cc1 (some centres not stated) [AMOROLFINE]		MIC (Candida albicans [9]): 202 µM (≈ 64 µg/mL)
Cc1n[nH]c(=O)c2noc(/C=C/c3ccsc3)c12	> 200 µM	
COc1ccc(-c2sc(/N=C/c3cc(Br)cc(Br)c3O)c(C#N)c2C)cc1OC		MIC (Candida albicans [2]): > 100 µM
